In patent US20090007283A1, “Transgenic Rodents Selectively Expressing Human B1 Bradykinin Receptor Protein” (priority 2003, published 2009):
Each block holds one compound with its values, some of them ahead of it.

What was measured:
human B1 receptor = biological target: T1, human B1 receptor (Homo sapiens, UniProt P46663); assay: Functional assay: DAK-induced contraction of fundus and ileum tissue from line 13 mice homozygous for the human B1 receptor gene
T1 construct: from tissue; host or cells: stomach fundus and ileum of line 13 mice homozygous for the human B1 receptor knock-in (targeting vector pB1R-KI2)
T1 sequence (P46663 1-353): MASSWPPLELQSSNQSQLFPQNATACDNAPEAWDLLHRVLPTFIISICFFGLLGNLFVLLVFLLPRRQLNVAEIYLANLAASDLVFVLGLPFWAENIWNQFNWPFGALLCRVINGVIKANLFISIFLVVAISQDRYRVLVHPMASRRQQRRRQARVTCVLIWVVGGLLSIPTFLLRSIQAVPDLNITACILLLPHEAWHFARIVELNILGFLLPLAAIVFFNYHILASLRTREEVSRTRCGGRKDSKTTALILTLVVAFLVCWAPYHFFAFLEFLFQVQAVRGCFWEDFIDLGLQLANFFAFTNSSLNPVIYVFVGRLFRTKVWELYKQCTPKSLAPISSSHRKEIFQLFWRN
Procedure: A functional assay was carried out twice on homozygous human b1 mouse fundus and ileum tissue to evaluate its B1 receptor activity in line 13, a mouse line homozygous for replacement of the mouse B1 gene with the human B1 receptor gene. A selective human B1 receptor compound (Compound #1) was tested for antagonistic activity against the receptor from these knock-in mice. Specifically, two homozygous mice were euthanized with CO2. Their stomach and ileum were removed and the fundic portion was divided in half by cutting an incision along the greater curvature. A medial longitudinal strip about 1 mm×0.6 cm was obtained by making cut along the midline incision. Two fundic strips were obtained from each stomach. The ileum was cut about 4 cm from the cecum. Each ileum is divided into two pieces and whole muscle was used. […] Each piece of ileum was tied one end to a glass rod with silk 4-0 and the other end to the Statham—Gould force transducer. One gram tension was applied to each tissue and contraction was recorded by a Hewlett-Packard 7758 recorder. All tissues receive 50 mM KCl at the end of 1 hr equilibrium for maximal response. The tissues are washed every 20 min for one hour. 30 nM of Compound #1 was added to two treated ileum or two treated fundus tissues and incubated for one hour. 0.1 μM M422 and 1 μM thiorphan are added to the bath 30 min before DAK dosing. A cumulative dose-response of DAK (10-^10M to 3×10^−5M) is carried out after pre-incubation.
DAK is diluted in Krebs solution. Full log dilution is made by adding 25 μl in […]. Compound #1 is diluted in DMSO.

B1 receptor = biological target: T2, B1 receptor (Mus musculus, UniProt Q61125); assay: DAK response of the stomach fundus in wild type mice
T2 construct: from tissue; host or cells: stomach fundus of wild type mice
T2 sequence (Q61125 1-334): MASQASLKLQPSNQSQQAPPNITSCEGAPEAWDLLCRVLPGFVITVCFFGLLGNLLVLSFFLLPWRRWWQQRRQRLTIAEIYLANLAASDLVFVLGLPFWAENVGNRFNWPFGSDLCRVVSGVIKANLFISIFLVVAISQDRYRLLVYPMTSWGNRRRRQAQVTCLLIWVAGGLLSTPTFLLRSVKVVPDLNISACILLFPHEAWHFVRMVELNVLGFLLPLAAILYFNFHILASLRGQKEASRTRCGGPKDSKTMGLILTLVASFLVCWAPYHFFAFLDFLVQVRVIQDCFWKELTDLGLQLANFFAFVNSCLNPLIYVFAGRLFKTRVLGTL
Description: This phenotype is detailed herein via a functional assay showing the effect of a selective antagonist of the human B1 receptor. […] Therefore, the transgenic mice of the present invention, including but not limited to the humanized mice exemplified herein, will be useful to evaluate the efficacy of human selective compounds in both in vitro and in vivo assays. The addition of exogenous agonist, or the natural release of endogenous agonist resulting from a stimulus, may activate the human receptor. The ability of human selective compounds to antagonize the activation of the receptor will permit a determination of the efficacy of the compound in these animal models. To this end, the humanized B1 transgenic models as described herein will be useful to screen any potential modulator of receptor activity (e.g., antagonists or agonists), including but not necessarily limited to peptides, proteins, or non-proteinaceous organic or inorganic molecules. The transgenic animals of the present invention provide for improved models to evaluate the efficacy of human selective compounds in both in non-human animal models, such as rodents humanized for expression of the B1 receptor. […] Even if successful, the properties of compounds selective for humans could not be assessed. […]

hb1 = biological target: T3, hb1 (Homo sapiens, UniProt P46663); assay: binding data, hb1; settings: human B1 receptor; kind of constant not given
T3 sequence (P46663 1-353): T1 sequence (P46663 1-353)

rat b1 = biological target: T4, rat b1 (Rattus norvegicus, UniProt P97583); assay: binding data, rat b1; settings: rat B1 receptor; kind of constant not given
T4 sequence (P97583 1-337): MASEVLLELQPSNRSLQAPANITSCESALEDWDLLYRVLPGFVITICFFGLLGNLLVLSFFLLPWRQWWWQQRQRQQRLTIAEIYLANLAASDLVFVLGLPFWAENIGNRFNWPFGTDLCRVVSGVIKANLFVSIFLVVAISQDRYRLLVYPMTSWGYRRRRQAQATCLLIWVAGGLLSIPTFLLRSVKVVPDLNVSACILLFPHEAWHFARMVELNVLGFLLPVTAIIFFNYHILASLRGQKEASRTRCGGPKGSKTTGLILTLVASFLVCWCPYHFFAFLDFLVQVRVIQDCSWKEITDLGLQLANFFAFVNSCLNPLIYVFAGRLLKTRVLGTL

[1] = biological target: T5, human B1 bradykinin receptor (human) (UniProt P46663); assay: cell-based or functional assay
T5 sequence (looked up): T1 sequence (P46663 1-353)

Compound: des-Arg^10 kallidin [des-arg^10-kallidin, reference compound]
DAK contractile response (human B1 receptor; Line #13 homozygous mice, compared with wild type): full DAK contractile responses

Kb (human B1 receptor; homozygous mouse fundus, Experiment #2 combined with Experiment #1 (n = 4)): 0.25 nM
Kb (human B1 receptor; homozygous mouse fundus, line 13, Experiment #1, 30 nM antagonist vs DAK): 0.27 nM
Kb (human B1 receptor; homozygous mouse fundus, line 13, Experiment #2, 30 nM antagonist vs DAK): 0.23 nM
Kb (human B1 receptor; homozygous mouse ileum, Experiment #2 combined with Experiment #1 (n = 4)): 0.09 nM
Kb (human B1 receptor; homozygous mouse ileum, line 13, Experiment #1, 30 nM antagonist vs DAK): 0.11 nM
Kb (human B1 receptor; homozygous mouse ileum, line 13, Experiment #2, 30 nM antagonist vs DAK): 0.21 nM
sensitivity of the DAK response to the human B1 selective antagonist (B1 receptor): insensitive
Ki (hb1): 0.04 nM
Ki (rat b1): 591 nM
Compound: O=C(C[C@@H]1C(=O)NCCN1S(=O)(=O)c1cccc2c1NCCC2)NCCc1ccc(C2=NCCN2)cc1 [Compound #1]

EC50 of des-arg^10-kallidin, contraction of homozygous mouse ileum, Control (n = 2), Experiment #1 [1]: 4 nM
Compound: des-Arg^10 kallidin (from UniProt P01042 380-388) (peptide)
